SMILES strings stand for the structures.

Data on one compound can be found in paper PMC6273912, “Novel 5-Substituted 2-(Aylmethylthio)-4-chloro-N-(5-aryl-1,2,4-triazin-3-yl)benzenesulfonamides: Synthesis, Molecular Structure, Anticancer Activity, Apoptosis-Inducing Activity and Metabolic Stability” (Molecules, 2016).

For one assay, the system named is MCF-7 (breast cancer). In words: MTT cell viability assay, MCF-7. In kind it is cell-based, human. As to conditions: Homo sapiens, MCF7, 72 h of incubation, mean ± SD. The essentials: (§1)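 Cells were seeded at 5 × 10^3 cells/well and exposed for 72 h to compounds at 1, 10, 25, 50 and 100 μM, with DMSO stocks. MTT (0.5 mg/mL) was added for 2 h at 37 °C, and formazan absorbance was read at 550 nm. Values are mean ± SD of at least three independent triplicate experiments.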

Another assay has as its system HCT-116. In words: Mitochondrial membrane potential (JC-1), HCT-116. In kind it is cell-based, human. The note with it: HCT-116, 24 h, low and moderate concentrations. The protocol: Loss of the mitochondrial membrane potential (Δψm) is one of the earliest indicators of an apoptosis. It can be detected using fluorescent dye JC-1 (5,5′,6,6′-tetrachloro-1,1′,3,3′-tetraethylbenzimidazolylcarbocyanine iodide) exited with blue laser. JC-1 spontaneously forms dimer complexes (J aggregates) with red fluorescent or remain as a monomers with green fluorescence in cells with high and low Δψm, respectively.
Half an hour before the end of 24 h-treatment 2.5 μg/mL of JC-1 (5,5′,6,6′-tetrachloro-1,1′,3,3′-tetraethylbenzimidazolylcarbocyanine iodide) was added to the cell medium. As a negative control 100 μM CCCP (carbonyl cyanide 3-chlorophenylhydrazone) was used 15 min before JC-1 treatment. Following treatment cells were twice washed with PBS and analyzed with flow cytometer (LSR II, BD Biosciences).
Green and red fluorescence were observed using FL-1 (530 ± 30 nm) and FL-2 (585 ± 42 nm) channels, respectively. Percentage of cell population in red or green fluorescence gate indicated the level of Δψm. Decreasing red fluorescence cell population indicated lower Δψm.

The next assay deals with HeLa (cervical cancer). In words: MTT cell viability assay, HeLa. As to conditions: 72 h of incubation, mean ± SD. In kind it is cell-based, human. The essentials:
as §1

The test system of the next assay is HeLa. Put plainly: Cell morphology (light microscope), HeLa. Type of assay: cell-based, human. The note with it: 25–100 μM, 24 h. The protocol:
To evaluate the changes in morphology of the treated cells, they were incubated with increasing concentrations of 37 (HCT-116, HeLa) or 46 (MCF-7) for 24 h and observed using light microscope.
The HCT-116, HeLa and MCF-7cells were seeded on 24-well plates (5 × 10^4/per well) in 300 μL of medium and incubated with 37 (HCT-116, HeLa) or 46 (MCF-7) for 24 h. Cells incubated with increasing concentrations of compounds (25–100 μM) were observed after 24 h using light microscope Axiovert 200 (Zeiss, Oberkochen, Germany).

For the next assay, the system named is HCT-116 (colon cancer). Put plainly: MTT cell viability assay, HCT-116. Type of assay: cell-based, human. The note with it: 72 h of incubation, mean ± SD. The essentials: as §1
Another assay relates to HCT-116, HeLa and MCF-7. Put plainly: MTT cell viability assay, all tested cell lines together. Type of assay: cell-based. The note with it: Homo sapiens; average over HCT-116, HeLa and MCF-7; read-out: average IC50 against all tested cell lines. The protocol: All chemicals, if not stated otherwise, were obtained from Sigma-Aldrich (St. Louis, MO, USA). The MCF-7 cell line was purchased from Cell Lines Services (Eppelheim, Germany), the HeLa and HCT-116 cell lines were obtained from the Department of Microbiology, Tumor and Cell Biology, Karolinska Institute (Stockholm, Sweden). Cells were cultured in Dulbecco’s modified Eagle’s medium (DMEM) supplemented with 10% fetal bovine serum, 2 mM glutamine, 100 units/mL penicillin, and 100 μg/mL streptomycin. Cultures were maintained in a humidified atmosphere with 5% CO2 at 37 °C in an incubator (HeraCell, Heraeus, Langenselbold, Germany).
Cell viability was determined using the MTT (3-(4,5-dimethylthiazol-2-yl)-2,5-diphenyl-tetrazoliumbromide) assay. Stock solutions of the studied compounds were prepared in 100% DMSO. […] Cells were seeded in 96-well plates at a density of 5 × 10^3 cells/well and treated for 72 h with the examined compounds in the concentration range 1–100 μM (1, 10, 25, 50 and 100 μM). Following treatment, MTT (0.5 mg/mL) was added to the medium and cells were further incubated for 2 h at 37 °C. Cells were lysed with DMSO and the absorbance of the formazan solution was measured at 550 nm with a plate reader (1420 multilabel counter, Victor, Jügesheim, Germany). […] The experiment was performed in triplicate. Values are expressed as the mean ± SD of at least three independent experiments.

`Cc1cc(S(=O)(=O)Nc2nncc(-c3ccc(C(F)(F)F)cc3)n2)c(SCc2cccc3ccccc23)cc1Cl` [Compound 37, 4-Chloro-5-methyl-2-[(naphthalene-1-yl)methylthio]-N-[5-(4-trifluoromethylphenyl)-1,2,4-triazin-3-yl]-benzenesulfonamide]: the IC50 with MCF-7 (breast cancer) was 70 ± 3 µM; in the assay with HeLa (cervical cancer), 34 ± 2 µM; with HeLa (cervical cancer) (Homo sapiens, 72 h), 34 to 42 µM; in the assay on HCT-116 (colon cancer), 36 ± 1 µM; in the assay with HCT-116 (colon cancer) (Homo sapiens, HCT-116, 72 h), 36 to 38 µM; in the assay on HCT-116, HeLa and MCF-7 it was 47 µM. The “effect on mitochondrial membrane potential (Δψm)” value with HCT-116 is “remarkably decreased Δψm”. The morphological changes entry in the assay with HeLa is given as “shrinkage of the cells, detachment from the surface”.
